The structures appear in SMILES notation. Converted amounts (≈) assume the structure as drawn. The source made the active and inactive calls.

Series [1] concerns Staphylococcus aureus. The series is described as follows: Antibacterial activity against Staphylococcus aureus CGMCC1.8721 assessed as reduction in bacterial growth in presence of Ca2+. It counts as functional.
Series [2] has as its system Staphylococcus aureus. Nature of the series: Bactericidal activity against methicillin-resistant Staphylococcus aureus CGMCC 1.12409 assessed as reduction in bacterial growth. It counts as functional.
Series [3] deals with Staphylococcus aureus. Nature of the series: Antibacterial activity against Staphylococcus aureus CGMCC1.8721 assessed as reduction in bacterial growth in presence of Fe2+. It counts as functional.
The test system of series [4] is Staphylococcus aureus. The series is described as follows: Antibacterial activity against Staphylococcus aureus CGMCC1.8721 assessed as reduction in bacterial growth in presence of peptidoglycan. It counts as functional, organism-based.
The test system of series [5] is Staphylococcus aureus. The series is described as follows: Antibiofilm activity against Staphylococcus aureus CGMCC1.8721 assessed as inhibition of biofilm formation. It counts as functional, organism-based.
The subject of series [6] is Staphylococcus aureus. Nature of the series: Antibacterial activity against methicillin-resistant Staphylococcus aureus CGMCC 1.12409 assessed as reduction in bacterial growth in presence of K+. It counts as functional.
Series [7] has as its system Staphylococcus aureus. Nature of the series: Bactericidal activity against Staphylococcus aureus CGMCC1.8721 assessed as reduction in bacterial growth. It counts as functional.
For series [8], the system named is Staphylococcus aureus. Nature of the series: Antibacterial activity against methicillin-resistant Staphylococcus aureus ATCC 43300 assessed as reduction in bacterial growth in presence of Fe2+. It counts as functional.
The test system of series [9] is Staphylococcus aureus. The series is described as follows: Antibacterial activity against Staphylococcus aureus CGMCC1.8721 assessed as induction of ROS production at 1 to 4 times MIC by DCFH-DA staining based flow cytometry analysis. It counts as functional, organism-based. For orientation: A flow cytometer gives signals particle by particle.
For series [10], the system named is Staphylococcus aureus. Nature of the series: Antibacterial activity against Staphylococcus aureus CGMCC1.8721 assessed as reduction in bacterial growth in presence of Na+. It counts as functional.
Series [11] has as its system Staphylococcus aureus. Nature of the series: Antibacterial activity against methicillin-resistant Staphylococcus aureus CGMCC 1.12409 assessed as reduction in bacterial growth in presence of Ca2+. It counts as functional.
The test system of series [12] is Staphylococcus aureus. The series is described as follows: Antibacterial activity against Staphylococcus aureus CGMCC1.8721 assessed as reduction in bacterial growth at 4 to 8 times MIC measured at 0.5 hrs by time kill assay. It counts as functional. The arrangement: scale not given: the % may be the effect or the level left.
Series [13] relates to Staphylococcus aureus. The series is described as follows: Bactericidal activity against methicillin-resistant Staphylococcus aureus ATCC 33591 assessed as reduction in bacterial growth. It counts as functional.
The subject of series [14] is Staphylococcus aureus. Nature of the series: Antibacterial activity against Staphylococcus aureus CGMCC1.8721 assessed as reduction in bacterial growth at 4 to 8 times MIC measured after 24 hrs by time kill assay. It counts as functional, organism-based.
The subject of series [15] is Staphylococcus aureus. The series is described as follows: Antibacterial activity against Staphylococcus aureus CGMCC1.8721 assessed as reduction in metabolic activity at 1 to 4 times MIC by Alamar Blue assay. It counts as functional, organism-based. On the technique in general: The colour change of resazurin is a common sign of viable cells or microbes.
The subject of the next series is HepG2. Nature of the series: Cytotoxicity against human HepG2 cells assessed as cell viability upto 40 uM relative to control. It counts as functional. To be noted: up to 40 µM.
Series [16] concerns Staphylococcus aureus. The series is described as follows: Antibacterial activity against methicillin-resistant Staphylococcus aureus ATCC 43300 assessed as reduction in bacterial growth in presence of Fe3+. It counts as functional.
Series [17] has as its system Staphylococcus aureus. The series is described as follows: Antibacterial activity against Methicillin-resistant Staphylococcus aureus CGMCC1.8721 infected in mouse skin infection model assessed as reduction in bacterial load at 5 mg/kg, sc. It counts as functional. The arrangement: scale not given: the % may be the effect or the level left.
Series [18] deals with Staphylococcus aureus. The series is described as follows: Bactericidal activity against methicillin-resistant Staphylococcus aureus ATCC 43300 assessed as reduction in bacterial growth. It counts as functional.
Series [19] deals with Staphylococcus aureus. Nature of the series: Antibiofilm activity against Staphylococcus aureus CGMCC1.8721 assessed as biofilm eradication. It counts as functional, organism-based.
Another series has as its system HEK-293T. The series is described as follows: Cytotoxicity against HEK293T cells upto 20 uM. To be noted: human. It counts as toxicity, cell-based.
Series [20] has as its system Staphylococcus aureus. Nature of the series: Antibacterial activity against methicillin-resistant Staphylococcus aureus CGMCC 1.12409 assessed as reduction in bacterial growth in presence of Zn2+. It counts as functional.
Series [21] has as its system Staphylococcus aureus. The series is described as follows: Antibacterial activity against methicillin-resistant Staphylococcus aureus CGMCC 1.12409 assessed as reduction in bacterial growth in presence of Mg2+. It counts as functional.

For the compound `CCNCc1ccc2[nH]cc(C[C@@H](C)[C@H]3CC[C@H]4[C@@H]5CC[C@@H]6C[C@H](O)CC[C@]6(C)[C@H]5CC[C@]34C)c2c1`, the MIC with Staphylococcus aureus [1] was determined as 1 µg/mL; in the series with Staphylococcus aureus [3], 1 µg/mL; in the series with Staphylococcus aureus [6], 2 µg/mL; in the series with Staphylococcus aureus [8], 1 µg/mL; in the series on Staphylococcus aureus [10], 1 µg/mL; in the series with Staphylococcus aureus [11], 2 µg/mL. The values for the MIC in the series on Staphylococcus aureus [16], in the series with Staphylococcus aureus [20] and in the series with Staphylococcus aureus [21] were 1 µg/mL, 2 µg/mL and 2 µg/mL, respectively. The MBC came out at 4 µg/mL (≈ 8.15 µM) in the series with Staphylococcus aureus [2], 2 µg/mL (≈ 4.08 µM) in the series with Staphylococcus aureus [7], 4 µg/mL (≈ 8.15 µM) in the series with Staphylococcus aureus [13] and 2 µg/mL (≈ 4.08 µM) with Staphylococcus aureus [18]. The result with Staphylococcus aureus [4] was inactive. Moreover, the Activity entry in the series with Staphylococcus aureus [5] was “Dose-dependent-effect”; with Staphylococcus aureus [12], 100%; with HepG2, greater than 70%; in the series with Staphylococcus aureus [17], 67%; in the series with HEK-293T, “Non-toxic”. Also, the result in the series with Staphylococcus aureus [9], with Staphylococcus aureus [14], in the series on Staphylococcus aureus [15] and with Staphylococcus aureus [19] was Active.

What is called MIC is the smallest concentration in the dilution series that meets the test's criterion for growth inhibition. As usually defined, the MBC is the lowest tested concentration that kills the bacteria rather than only halting them.
